Measured values taken from patent US9585864B2, “Anticancer formulation” (National Dong Hwa University, priority 2010, dated 2017).

What was measured:
[1] = system: DBTRG-05MG cells (human GBM); test: Matrigel invasion chamber and PET membrane migration assay; assay type: cell-based; conditions: 24 hours
Procedure: The invasion of DBTRG-05MG cells was examined using a BioCoat matrigel invasion chamber system (BD Bioscience, Bedford, Mass.). The BD matrigel Matrix is composed of laminin, collagen IV, nidogen/entrctin, and proteoglycan on polyethylene terephthalate (PET) membranes containing 8 μm pores. In the in vitro migration assay, low pore density PET track-etched membrane on Falcon culture insert (BD Bioscience) was applied. The membrane was placed between the upper and lower wells of a Matrigel chamber or Falcon culture inserts. The cells were first resuspended in PRMI 1640 containing 10% fetal bovine serum and seeded into the upper wells of the chamber (50,000 cells per well). After incubating for 24 hours at 37° C., the cells that invaded or migrated through the membrane were stained with Liu stain (Handsel Technologies, Inc., Taipei, Taiwan) and counted under a microscopy. Each experiment was repeated thrice.

[2] = system: Axl receptor tyrosine kinase (RTK); test: RT-PCR and Western blot of Axl expression in GBM cells; assay type: cell-based
Procedure: Reverse transcriptase-polymerase chain reaction (RT-PCR) was used to examine the effect of z-Bdph on the gene expression profile in GBM cells to elucidate the possible mechanisms of z-Bdph's inhibition of malignant brain tumor.
Western Blot assays were also carried out to examine the Axl protein level of the GBM cells in the presence of z-Bdph.

JNK, AKT, ERK = test: Western blot of signaling pathway phosphorylation in RG2 cells; assay type: cell-based, rat; conditions: 100 μg/ml, treatment for 1 hour
Procedure: Finally, signaling pathways involved in z-Bdph-induced Nur77 gene expression were investigated. RG2 cells were treated with Bdph (100 μg/ml) for various time periods (0, 15, 30, 60, and 180 mins).

Nur77 = test: RT-PCR of orphan receptor Nur77 mRNA expression in RG2 cells; assay type: cell-based, rat; conditions: IC50 concentration of z-Bdph, 0, 0.5, 1, 3 and 6 h
Procedure: To confirm the results of the oligodeoxynucleotide-based microarray analysis, expression of the orphan receptors NOR-1, Nurr1, and Nur77 was examined in z-Bdph-treated RG2 cells by RT-PCR.
RG2 cells were incubated with IC50 concentration of z-Bdph for various time periods (0, 0.5, 1, 3, and 6 h). After incubation, cells were collected and total RNA isolated. Expression of GADPH was used as an internal control.

[3] = system: Nur77 in DBTRG-05NG cells (human GBM cells); test: Nur77 translocation by immunostaining, fluorescence microscopy; assay type: cell-based; conditions: 100 μg/mL, 24 hours
Procedure: Whether translocation of Nur77 occurred in response to z-Bdph was examined. DBTRG-05NG cells (human GBM cells) were treated with Bdph (100 μg/mL) for 24 hours, then immunostained with anti-Nur77 antibody followed by corresponding Rhodamine-conjugated anti-IgG secondary antibody. Simultaneously, cells were stained with DAPI to display the nuclei. The fluorescent images were visualized with a fluorescence microscope.

## CCC/C=C1\OC(=O)c2ccccc21 [z-Bdph, (Z)-n-butylidenephthalide]
[1]; BioCoat matrigel invasion chamber
  invasion of DBTRG-05MG cells: inhibited migration and invasion of DBTRG-05MG cells in a dose dependent manner
[1]; PET track-etched membrane
  migration of DBTRG-05MG cells: inhibited migration and invasion of DBTRG-05MG cells in a dose dependent manner
[2]; RT-PCR
  mRNA expression of Axl receptor tyrosine kinase: down-regulated
[2]; Western blot
  Axl protein level: reduced
JNK, AKT, ERK
  phosphorylation of JNK, AKT, ERK: JNK, AKT, ERK were significantly phosphorylated
Nur77
  mRNA expression of Nur77: induced in the cells in a time-dependent manner
[3]
  translocation of Nur77: Nur77 was translocated from the nucleus to the cytoplasm
